One data set concerns HT-1080 cells. Nature of the data set: inhibition of macropinocytosis (TMR-dextran uptake). The data set is classed as cell-based, human. Here is the method:
(§1) Pharmacological Test 5 (Experiment of Inhibition of Macropinocytosis of Cancer Cells)
(§2) Macropinocytosis is a phenomenon in which cells take up various substances together with extracellular fluid while extending cellular membranes. Remodeling of actin cytoskeleton through Rac activity is known to be important.
(§3) One hundred and fifty microliters of 4×10^4 3LL cells or HT-1080 cells were seeded on the glass portion of fibronectin-coated glass-bottom culture dishes. After 16-hour culture at 37° C., the medium was changed to DMEM (serum free) and cultured for 24 hours to allow the cells to be serum-starved. Subsequently, the medium was changed to 2 mL of serum-free medium containing DMSO alone or DMSO in which each pyridinone compound was dissolved, followed by pretreatment for 1 hour. The final concentration of DMSO was adjusted to 0.2%.
(§4) The cells were added to 180 μL of medium with TMR-dextran (final concentration: 500 μg/mL)-containing DMEM (with 10% FBS) containing DMSO alone or DMSO in which a predetermined concentration of each pyridinone compound was dissolved, as in the case above, followed by incubation at 37° C. for 1 hour. Thereafter, the cells were fixed by 60-minute incubation at room temperature in a 4% paraformaldehyde solution. […] The macropinocytosis activity was measured based on the number of TMR-dextran spots per cell. […]

In the next data set the test system is 3LL cells. Described as above. The data set is classed as cell-based, mouse. As to the method: as §1, §2, §3, §4
Data set [1] concerns human colon cancer cell line (DLD-1). The experiment in a line: cellular invasion inhibition assay (Matrigel chamber). The data set is classed as cell-based. Particulars: FIG. 12(D). As to the method: Pharmacological Test 2 (Cellular Invasion Inhibition Assay)
Three hundred microliters of a suspension of a mouse lung carcinoma cell line (3LL), a human fibrosarcoma cell line (HT-1080), or a human colon cancer cell line (DLD-1) in DMEM (serum free) was placed in the upper chamber with Matrigel (BD Biosciences) equilibrated with DMEM (serum free) for 120 minutes, while 500 μL of DMEM (with 10% FCS) was placed in the lower chamber. Each pyridinone compound or CPYPP dissolved at a predetermined concentration in DMSO was added to the culture media in both the upper and lower chambers. As a control, DMSO alone was added to the media. In all of the experiments, the final DMSO concentration was adjusted to 0.2%.
After the resulting products were cultured at 37° C. under 5% CO2 for 22 hours, the chambers were removed, and the culture media were removed. […] After staining, the inserts were cut out with a blade to prepare slides, and the cells were counted under an optical microscope.
The results were evaluated based on percent cell invasion (%: Invasion) and percent inhibition (%: inhibition). The percent cell invasion was obtained by converting the number of invading cells under each condition to percentage, taking the number of invading cells in the control, to which DMSO was added alone, as 100%; and the percent inhibition was obtained by deducting the percent cell invasion from 100.

The subject of data set [2] is mouse melanoma B16F10 cells. Nature of the data set: inhibition of lung metastasis of mouse melanoma cells. The data set is classed as in vivo. As to the method:
(§5) Pharmacological Test 8 (Experiment for Inhibition of Lung Metastasis of Mouse Melanoma Cells)
(§6) Mouse melanoma B16F10 cells suspended in 200 μL of PBS(−) were injected (2.5 or 5×10^5 cells per mouse) into the tail vein of C57BL/6 mice (6 weeks old, female). […] For a control group, an equivalent amount of a solvent (a liquid mixture of PBS/CremophoreEL/ethanol (6:1:1)) alone was administered. The administration was performed 4 times in total: immediately before the cell transplantation, and day 1, day 3, and day 5 after the transplantation. Fourteen days after the first administration, the lung was excised from each mouse, and the number of tumor metastatic foci at the lung surface was counted.

Data set [3] in a line: mouse body weight in the lung metastasis experiment. Format: in vivo. Particulars: 0.2, 0.6 or 2 mg/mouse iv, FIG. 17(D). Here is the method:
as §5, §6

Each structure is given as a SMILES string.

Take `O=C(Cn1cc(S(=O)(=O)N2CCCC2)ccc1=O)c1ccc(-c2ccc3ccccc3c2)cc1` [TS-28, 1-(2-(4-(naphthalen-2-yl)phenyl)-2-oxoethyl)-5-(pyrrolidin-1-ylsulfonyl)pyridin-2(1H)-one]: the inhibition of macropinocytosis entry with HT-1080 cells is “inhibit macropinocytosis in 3LL cells and HT-1080 cells in a concentration-dependent manner”; with 3LL cells it was “inhibit macropinocytosis in 3LL cells and HT-1080 cells in a concentration-dependent manner”.
Regarding `O=C(Cn1cc(S(=O)(=O)N2CCCC2)ccc1=O)c1ccc(-c2cccc(C(F)(F)F)c2)cc1` [TS-45, 1-(2-oxo-2-(3′-(trifluoromethyl)-[1,1′-biphenyl]-4-yl)ethyl)-5-(pyrrolidin-1-ylsulfonyl)pyridin-2(1H)-one], the inhibition of macropinocytosis result in the data set with HT-1080 cells was “inhibit macropinocytosis in 3LL cells and HT-1080 cells in a concentration-dependent manner”; in the data set on 3LL cells it was “inhibit macropinocytosis in 3LL cells and HT-1080 cells in a concentration-dependent manner”. The “inhibition of DLD-1 cell invasion” value in data set [1] is “inhibits DLD-1 cell invasion”. In addition, the “metastasis of melanoma cells to the lung” value in data set [2] (C57BL/6 mice, 2 mg/mouse iv, 4 times, FIG. 17(B)) is “significantly inhibited”. Further, the “number of cells that underwent metastasis to the lung, reduced to” value in data set [2] (dose of about 0.2 mg to a mouse, iv 4 times, FIG. 17(C)) is given as “about 20%”. Also, the mouse body weight entry in data set [3] is given as “not affected”.

These data come from patent US11311523B2, “Pyridinone compound and use thereof” (KYUSHU UNIVERSITY, NATIONAL UNIVERSITY CORPORATION, priority 2015, dated 2022).
